Some results are limits rather than exact numbers.

The target in one test is T1, human PI3Kα protein (Homo sapiens, UniProt P42336).
T1 construct: purchased Carna Biosciences, Inc; host or cells: Baculovirus expression system
Put plainly: PI3Kα enzyme assay (ADP-Glo kinase assay). Conditions: IC50 class; 3 nM PI3Kα, 50 μM PIP2, 100 μM ATP; read-out: PI3Kα Inhibitory Activity. The class given is biochemical. Summed up:
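Baculovirus-expressed biotinylated human PI3Kα (3 nM) preincubated 15 min with compound in Tris pH 7.5, MgCl2, BSA, then reacted 60 min at 25 °C with 50 μM PIP2 and 100 μM ATP. ADP quantified by ADP-Glo luminescence; IC50 calculated.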
For orientation: ADP-Glo turns the ADP formed in a reaction into a luminescent signal.

The target of test [1] is T2, glutathione S-transferase (GST)-fusion human ERK2 protein (Homo sapiens, UniProt P28482).
T2 construct: purchased Carna Biosciences, Inc; host or cells: E. coli expression system
Kind of test: ERK2 enzyme assay (LabChip mobility shift). The test is classed as biochemical. The settings on record: IC50 class; 2 nM ERK2, 4.25 μM FL-Peptide 8, 43 μM ATP; read-out: ERK2 Inhibitory Activity. Summed up:
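GST-tagged human ERK2 from E. coli, at 2 nM, was preincubated 15 min at room temperature with compound in Hepes pH 7.5 with MgCl2, DTT and Brij35. The reaction ran 120 min at 25 °C with 4.25 μM FL-Peptide 8 and 43 μM ATP (final). Phosphopeptide fraction was measured by mobility-shift separation to give IC50.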

For test [2], the system named is Human colon cancer cell line (HCT116). Kind of test: Cell growth inhibition test (Celltiter-Glo). The test is classed as cell-based. Conditions: HCT-116, IC50 class, 72 hours culture, viable cells by Celltiter-Glo. How it is done:
Evaluation of the cell proliferation inhibitory activity of the compound of the present invention was carried out according to the method below. Human colon cancer cell line (HCT116) McCoy's 5A (INVITROGEN)+Final Concentration 10% FBS+GLUTA Max (INVITROGEN) Celltiter-Glo™ Luminescent Cell Viability Assay (Promega Corporation) HCT116 was seeded on a 96-well culture microplate (Corning Inc.) at 750/well (90 uL/well), and a compound for evaluation (final concentration: 25.00 μM to 0.01 μM, 3-fold common ratio 8 points) was added thereto. After culturing in a CO2 incubator (37° C.) for 72 hours, the number of viable cells were calculated by Celltiter-Glo. For the measurement of luminescence intensity, EnVision (PerkinElmer, Inc.) was used. The inhibitory activity of the compound was calculated using IC50 (50% inhibitory concentration). The IC50 was calculated using XLfit (IDBS). The results of IC50 were evaluated according to the following evaluation criteria.
For orientation: Cellular ATP, detected with luciferase, serves as a proxy for viable cell number.

T1 sequence (P42336 whole entry): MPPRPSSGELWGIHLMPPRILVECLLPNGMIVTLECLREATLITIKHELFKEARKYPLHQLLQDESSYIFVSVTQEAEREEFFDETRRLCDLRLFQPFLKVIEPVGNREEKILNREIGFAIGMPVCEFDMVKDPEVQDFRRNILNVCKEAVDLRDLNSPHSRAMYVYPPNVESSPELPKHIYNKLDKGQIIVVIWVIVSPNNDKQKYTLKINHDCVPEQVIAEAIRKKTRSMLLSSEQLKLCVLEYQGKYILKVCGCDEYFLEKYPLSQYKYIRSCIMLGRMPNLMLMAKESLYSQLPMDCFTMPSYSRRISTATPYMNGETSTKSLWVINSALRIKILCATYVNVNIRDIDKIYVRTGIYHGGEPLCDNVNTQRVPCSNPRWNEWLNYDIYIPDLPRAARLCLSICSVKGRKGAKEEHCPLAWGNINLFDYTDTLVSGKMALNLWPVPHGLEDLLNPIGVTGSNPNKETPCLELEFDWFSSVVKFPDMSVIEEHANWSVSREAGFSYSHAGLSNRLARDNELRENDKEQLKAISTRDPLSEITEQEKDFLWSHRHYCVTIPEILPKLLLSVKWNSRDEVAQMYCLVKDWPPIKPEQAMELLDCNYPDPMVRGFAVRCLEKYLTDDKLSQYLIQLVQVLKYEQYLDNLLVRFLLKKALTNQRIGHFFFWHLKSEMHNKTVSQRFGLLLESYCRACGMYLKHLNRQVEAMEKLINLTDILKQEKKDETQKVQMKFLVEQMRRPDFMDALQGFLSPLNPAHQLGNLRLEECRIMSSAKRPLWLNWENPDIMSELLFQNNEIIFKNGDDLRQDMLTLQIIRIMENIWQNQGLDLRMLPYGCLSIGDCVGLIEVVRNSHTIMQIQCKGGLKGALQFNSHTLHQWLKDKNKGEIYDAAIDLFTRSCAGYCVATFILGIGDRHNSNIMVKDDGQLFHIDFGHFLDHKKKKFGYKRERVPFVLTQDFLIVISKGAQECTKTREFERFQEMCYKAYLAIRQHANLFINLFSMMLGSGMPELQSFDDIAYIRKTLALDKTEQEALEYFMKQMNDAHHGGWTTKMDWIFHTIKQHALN
T1 sequence (P27986 whole entry partner): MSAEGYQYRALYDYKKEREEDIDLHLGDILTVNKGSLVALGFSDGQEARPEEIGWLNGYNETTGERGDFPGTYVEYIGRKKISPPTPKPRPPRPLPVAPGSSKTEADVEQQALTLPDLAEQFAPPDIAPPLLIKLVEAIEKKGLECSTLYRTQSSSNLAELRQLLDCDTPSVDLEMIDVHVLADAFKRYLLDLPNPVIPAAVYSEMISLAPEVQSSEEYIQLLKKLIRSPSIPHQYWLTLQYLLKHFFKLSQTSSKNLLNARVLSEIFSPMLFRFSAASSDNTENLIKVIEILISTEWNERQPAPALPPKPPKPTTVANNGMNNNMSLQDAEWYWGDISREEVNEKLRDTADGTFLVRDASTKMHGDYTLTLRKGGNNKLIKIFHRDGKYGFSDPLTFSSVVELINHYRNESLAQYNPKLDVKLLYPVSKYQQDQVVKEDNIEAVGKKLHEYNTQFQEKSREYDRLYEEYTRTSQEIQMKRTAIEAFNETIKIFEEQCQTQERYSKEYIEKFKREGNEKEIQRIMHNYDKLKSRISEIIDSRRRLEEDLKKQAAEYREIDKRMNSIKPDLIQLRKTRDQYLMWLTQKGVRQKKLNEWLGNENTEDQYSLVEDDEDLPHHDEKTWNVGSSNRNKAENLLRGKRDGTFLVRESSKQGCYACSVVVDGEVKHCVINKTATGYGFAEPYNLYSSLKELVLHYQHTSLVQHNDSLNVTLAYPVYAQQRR
T2 sequence (P28482 whole entry, the tested form may be a part): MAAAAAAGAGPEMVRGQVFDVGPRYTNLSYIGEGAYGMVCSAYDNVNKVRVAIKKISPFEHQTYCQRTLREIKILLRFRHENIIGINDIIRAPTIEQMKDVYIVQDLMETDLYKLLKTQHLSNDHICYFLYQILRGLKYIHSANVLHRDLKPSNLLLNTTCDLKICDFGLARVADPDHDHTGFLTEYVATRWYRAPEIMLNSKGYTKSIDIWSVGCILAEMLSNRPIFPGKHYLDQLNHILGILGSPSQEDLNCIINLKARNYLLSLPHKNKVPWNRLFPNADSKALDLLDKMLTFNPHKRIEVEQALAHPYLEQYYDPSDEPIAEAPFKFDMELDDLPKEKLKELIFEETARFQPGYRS

As to `CCCC(C)(C)NC(=O)Nc1ccc2ncc(-c3cnn(CCCN4CCOCC4)c3)cc2n1` [Compound 0182], the IC50 was below 0.1 µM at human PI3Kα protein, below 0.1 µM in test [1] and below 1 µM in test [2].

For `CN1CCC(n2cc(-c3cnc4ccc(NC(=O)NC5(C)CCCC5)nc4c3)cn2)CC1` [Compound 0255], the IC50 on human PI3Kα protein is below 0.1 µM; in test [1] it was 0.1 to 1 µM; in test [2] it was below 1 µM.
